The values that follow come from US20210330756A1, “Acetylation of Miro1” (University of South Carolina, priority 2020, published 2021).

For test [1], the system named is sciatic nerve unmyelinated axons. Description: EM count of mitochondria in unmyelinated sciatic nerve axons after nerve injection. It counts as in vivo, rat. Conditions: 2 μl of 1.5 mM, EM 2 h after injection, vs vehicle. The method, then: To determine if TubA might also affect axonal mitochondria in vivo, we directly injected TubA into the sciatic nerve of adult rats at mid-thigh. […] As this could reflect stalling of mitochondria or increased numbers of anterogradely and/or retrogradely moving mitochondria, we performed in vivo imaging to visualize mitochondrial dynamics.
For in vivo inhibition of HDAC6, the sciatic nerve of anesthetized adult rats was injected twice at mid-thigh level with 2 μl of 1.5 mM TubA on the right and 2 μl of DMSO (vehicle control) on the left (isofluorane inhalation was used for anesthesia). Nerve injection sites were separated by 2 mm. […]
Vesicle trafficking was quantified using differential ImageJ Difference Tracker Plug-in (Andrews et al., 2010). 50-80-μm long unbranched axon segments at approximately the mid-region between growth cone and cell body were analyzed. […] The distance between the growth tip at end of the post-CALI sequence and the pre-CALI baseline was measured using LAS-X software. Movement of ≥0.5 μm toward the axon shaft was counted as retracted. Fluorescence emission of the Mito-KR post-CALI was analyzed using ImageJ. […] For axon shaft FRAP analyses, each 50-μm bleached ROI was divided into […], and the fluorescence intensity recovery was measured as described above. […] A minimum of 75 unmyelinated axons was analyzed for each nerve. […]

The subject of a further test is adult DRG neurons. Description: Axon growth of DRG neurons on laminin or substrate-bound aggrecan (CSPG). It counts as cell-based, rat. The settings on record: 10 μM TubA, 24 h. From the text: MAG and CSPGs are more often tested as surface-bound substrates than with the bath applications used here. Thus, we tested whether bath application of growth inhibitors would cause growth cone retraction in a manner similar to surface-bound inhibitors. […] RhoA activation is a well-known downstream mediator for the growth-inhibitory effects of both MAG and CSPGs (Fujita and Yamashita, 2014), so we tested whether the RhoA/ROCK pathway contributes to the impact of aggregan on mitochondria distribution in growth cones.
MAG or Aggrecan exposures were performed as bath application or on coated substrates. For bath application, dissociated DRGs were cultured for 48 h and treated with 25 μg/ml of MAG-Fc (R&D Systems; 538-MG), 25 μg/ml Fc control (R&D Systems; 110-HG), or 10 μg/ml of Aggrecan (Sigma-Aldrich; A1960) for 4 h. Cultures were pretreated with either Ca^2+ chelator BAPTA-AM (3 μM; Sigma-Aldrich; A1076), ROCK inhibitor Y27632 (10 μM; Sigma-Aldrich; SCM075), HDAC6 inhibitor TubA (10 μM; R&D Systems; 6270), Thapsigargin (1 μM; Sigma-Aldrich; T9033), Rho Activator II (1 μg/ml; Cytoskeleton; CNO3), or equivalent volume DMSO 30 min before MAG-Fc, Aggrecan, or controls. […]
NF-stained cultures were used for neurite growth analyses. […] The growth cone area was measured using ImageJ software from these annotated DIC images. […]

Each structure is given as a SMILES string.

Consider `CN1CCc2c(c3ccccc3n2Cc2ccc(C(=O)NO)cc2)C1` [TubA, tubastatin], for which the “mitochondrial numbers in unmyelinated axons” value in test [1] is reported as “significantly increased mitochondrial numbers”. Besides, in the test on adult DRG neurons, the “effect on attenuation of axon growth by substrate-bound aggrecan” value was “prevented by TubA exposure”.
